Entries after “also recorded” stand apart in the source; their conditions may differ.
Assays:
[1] = test system: human peripheral blood monocytes; assay: FACS analysis of cell surface markers on cultured peripheral blood monocytes; format: cell-based; settings: for effect of agent on ionophore-induced activated myeloid dendritic cell phenotype: added to calcium ionophore treatment; for induction of activated myeloid dendritic cell phenotype (CD80 and CD83 expression): 20-40 hours, wide dose range, alone or in combination
[2] = test system: HL-60 cells; assay: FACS analysis of cell surface markers on HL-60 cells; format: cell-based, human
[3] = test system: HL-60 cells; assay: as above; format: cell-based, human; remark: listed apart in the source
Protocol: Calcium was removed from cultured cells by two methods.
The second method involved washing the cells extensively in calcium-free RPMI medium, and culturing them in the same calcium-free medium supplemented with serum that had been dialyzed against calcium-free phosphate-buffered saline.
The calmodulin kinase inhibitors KN-62 (20 uM) or KT-5926 (1 uM) was added to HL-60 cells in the presence of 188 ng/ml A23187. Twenty four hours later the level of CD80 was analyzed.
Thapsigargin was added to cultured human peripheral blood monocytes and HL-60 cells in concentrations ranging from 0 to 1000 nM. Cells were harvested 24 hours later and evaluated for the acquisition of ADC immunophenotypic characteristics by FACS analysis.
Cells were harvested after three days, irradiated (3000R), then FACS analyzed or cocultured in graded numbers with freshly prepared naive (CD45RO negative) T lymphocytes. Allosensitization was assessed by pulsing at day 4 with ^3H-TdR and harvesting 18 hours later.

[4] = KT5926 1 uM, 750 ng/ml ionophore, 24 hours

Row | Molecule | effect of agent on ionophore-induced activated myeloid dendritic cell phenotype [1] | other results
1 | trifluoperazine dimaleate [TpD] | inhibited at least some of the ionophore's effects | effect on CD40, HLA-DR and HLA-ABC ([1]; TpD): significant suppressive effects; inhibition of CD80 ([1]; TpD 10 uM (optimal)): over 50%; inhibition of CD86 ([1]; TpD 10 uM (optimal)): over 50%; inhibition of ionophore-induced up-regulation of CD80 ([2]; TpD 10 uM (optimal), A23187 188 ng/ml, 24 hours): over 90%
2 | MCP-1: chemokine inducing monocyte chemotaxis | – | induction of activated myeloid dendritic cell phenotype (CD80 and CD83 expression) [1]: do not induce monocytes to express the phenotype of activated myeloid dendritic cells
3 | CN([C@@H](Cc1ccc(OS(=O)(=O)c2cccc3cnccc23)cc1)C(=O)N1CCN(c2ccccc2)CC1)S(=O)(=O)c1cccc2cnccc12 [KN-62] | inhibited at least some of the ionophore's effects | –
4 | CCCOc1ccc2c(c1)c1c3c(c4c5ccccc5n5c4c1n2[C@H]1C[C@](O)(C(=O)OC)[C@]5(C)O1)CNC3=O [KT-5926] | inhibited at least some of the ionophore's effects | suppression of CD40 [1, 4]: > 50%; suppression of CD80 [1, 4]: > 60%; suppression of CD86 [1, 4]: about 50%; suppression of HLA-ABC [1, 4]: over 40%; suppression of HLA-DR [1, 4]: modest, but detectable suppression
5 | CN[C@@H]1C[C@H]2O[C@@](C)([C@@H]1OC)n1c3ccccc3c3c4c(c5c6ccccc6n2c5c31)C(=O)NC4 [staurosporine] | enhanced CD14 downregulation and upregulation of costimulatory, MHC, and other molecule expression | –
6 | O=C(O)CN(CCN(CC(=O)O)CC(=O)O)CC(=O)O [EDTA] | – | suppression of ionophore-induced CD80/CD86 ([3]; 0.25 uM EDTA): suppressive effects rapidly diminished; suppression of ionophore-induced CD80/CD86 ([3]; 0.5 uM EDTA): Almost identical suppression; diminution of ionophore-induced CD86 levels ([3]; 1 uM EDTA): more than 85%; suppression of ionophore-induced CD80 upregulation ([3]; 1 uM EDTA): 100%
7 | rhIL-4: recombinant human IL-4 | enhanced CD14 downregulation and upregulation of costimulatory, MHC, and other molecule expression | –
8 | COC(=O)[C@@]1(OC)C[C@H]2O[C@]1(C)n1c3ccccc3c3c4c(c5c6ccccc6n2c5c31)C(=O)N(C)C4 [KT5823] | inhibited at least some of the ionophore's effects | –
9 | C[C@H]1O[C@@H](n2cnc3c(N)ncnc32)C[C@@H]1O [2′5′-DDA] | enhanced CD14 downregulation and upregulation of costimulatory, MHC, and other molecule expression | –
10 | rhGM-CSF: recombinant human GM-CSF | enhanced CD14 downregulation and upregulation of costimulatory, MHC, and other molecule expression | effect on HL-60 phenotype ([2]; rhGM-CSF alone): little effect alone
11 | CCCC(=O)Nc1ncnc2c1ncn2[C@@H]1O[C@@H]2COP(=O)(O)O[C@H]2[C@H]1OC(=O)CCC [dibutryl cAMP] | inhibited at least some of the ionophore's effects | –
12 | C[C@@H]1[C@H](O)[C@@H](C)/C=C/C=C/C=C/C=C/C=C/C=C/C=C/[C@H](O[C@@H]2O[C@H](C)[C@@H](O)[C@H](N)[C@@H]2O)C[C@@H]2O[C@](O)(C[C@@H](O)C[C@@H](O)[C@H](O)CC[C@@H](O)C[C@@H](O)CC(=O)O[C@H]1C)C[C@H](O)[C@H]2C(=O)O [amphotericin B] | enhanced the induction of an activated myeloid dendritic cell phenotype; also recorded: enhance calcium ionophore's effect | effect of agent alone on monocytes ([1]; without ionophore): no or little effect alone
13 | CCCC(=O)Nc1nc2c(ncn2C2O[C@H]3COP(=O)(O)O[C@@H]3[C@@H]2OC(=O)CCC)c(=O)[nH]1 (stereo partly drawn) [dibutryl cGMP] | enhanced CD14 downregulation and upregulation of costimulatory, MHC, and other molecule expression | –
14 | C[C@]12C=CC(=O)C=C1CC[C@@H]1[C@@H]2[C@@H](O)C[C@@]2(C)[C@H]1CC[C@]2(O)C(=O)CO [prednisolone] | inhibited at least some of the ionophore's effects | –
15 | NCCCCCCNS(=O)(=O)c1cccc2c(Cl)cccc12 [W-7] | inhibited at least some of the ionophore's effects | inhibition of ionophore-induced CD80 expression ([2]; W-7 50 uM (optimal), A23187 188 ng/ml, 24 hours): over 75%
16 | CCCCC[C@H](O)/C=C/[C@H]1[C@H](O)CC(=O)[C@@H]1C/C=C\CCCC(=O)O [PGE2] | inhibited at least some of the ionophore's effects | –
17 | rhIL-6: recombinant human IL-6 | little or no effect | –
18 | C[C@H](CCC(=O)O)C[C@H](C)C[C@H](C)C(=O)/C=C(\O)[C@H](C)C[C@H](C)C/C=C/[C@@H](C)[C@@H](O)[C@@H](C)[C@@H](O)C[C@@H]1CC[C@@](C)([C@H]2CC[C@@](C)([C@@H](C)O)O2)O1 [ionomycin] | – | activation and dendritic cell phenotypic conversion of pooled monocyte plus DC fractions ([1]; added at the beginning of a 24-48 hr culture period): uniform activation and dendritic cell phenotypic conversion
19 | CO[C@H]1[C@@H](OC)C[C@H](C)[C@@H](OC)C2=CC(=O)C=C(NC(=O)/C(C)=C/C=C\[C@H](OC)[C@@H](OC(N)=O)/C(C)=C/[C@@H]1C)C2=O [herbimycin A] | inhibited at least some of the ionophore's effects | –
20 | C=C1[C@@H](O)[C@@H]2O[C@]3(CC[C@H](/C=C/[C@@H](C)[C@@H]4CC(C)=C[C@@]5(O[C@H](C[C@@](C)(O)C(=O)O)CC[C@H]5O)O4)O3)CC[C@H]2O[C@@H]1[C@@H](O)C[C@H](C)[C@H]1O[C@@]2(CCCCO2)CC[C@H]1C [okadaic acid] | enhanced CD14 downregulation and upregulation of costimulatory, MHC, and other molecule expression | –
21 | rhIL-1 alpha: recombinant human IL-1 alpha (protein, UniProt P01583 113-271, looked up) Interleukin-1 alpha: SAPFSFLSNVKYNFMRIIKYEFILNDALNQSIIRANDQYLTAAALHNLDEAVKFDMGAYKSSKDDAKITVILRISKTQLYVTAQDEDQPVLLKEMPEIPKTITGSETNLLFFWETHGTKNYFTSVAHPNLFIATKQDYWVCLAGGPPSITDFQILENQA | little or no effect | –
22 | rhIL-12: recombinant human IL-12 (protein, UniProt P29459 23-219; P29460 23-328, looked up) Interleukin-12 subunit alpha: RNLPVATPDPGMFPCLHHSQNLLRAVSNMLQKARQTLEFYPCTSEEIDHEDITKDKTSTVEACLPLELTKNESCLNSRETSFITNGSCLASRKTSFMMALCLSSIYEDLKMYQVEFKTMNAKLLMDPKRQIFLDQNMLAVIDELMQALNFNSETVPQKSSLEEPDFYKTKIKLCILLHAFRIRAVTIDRVMSYLNAS Interleukin-12 subunit beta: IWELKKDVYVVELDWYPDAPGEMVVLTCDTPEEDGITWTLDQSSEVLGSGKTLTIQVKEFGDAGQYTCHKGGEVLSHSLLLLHKKEDGIWSTDILKDQKEPKNKTFLRCEAKNYSGRFTCWWLTTISTDLTFSVKSSRGSSDPQGVTCGAATLSAERVRGDNKEYEYSVECQEDSACPAAEESLPIEVMVDAVHKLKYENYTSSFFIRDIIKPDPPKNLQLKPLKNSRQVEVSWEYPDTWSTPHSYFSLTFCVQVQGKSKREKKDRVFTDKTSATVICRKNASISVRAQDRYYSSSWSEWASVPCS | enhanced CD14 downregulation and upregulation of costimulatory, MHC, and other molecule expression | –
23 | RANTES: chemokine inducing monocyte chemotaxis (protein, UniProt P13501 24-91, looked up) C-C motif chemokine 5: SPYSSDTTPCCFAYIARPLPRAHIKEYFYTSGKCSNPAVVFVTRKNRQVCANPEKKWVREYINSLEMS | – | induction of activated myeloid dendritic cell phenotype (CD80 and CD83 expression) [1]: do not induce monocytes to express the phenotype of activated myeloid dendritic cells
24 | MIP-1-alpha: chemokine inducing monocyte chemotaxis (protein, UniProt P10147 24-92, looked up) C-C motif chemokine 3: SLAADTPTACCFSYTSRQIPQNFIADYFETSSQCSKPGVIFLTKRSRQVCADPSEEWVQKYVSDLELSA | – | induction of activated myeloid dendritic cell phenotype (CD80 and CD83 expression) [1]: do not induce monocytes to express the phenotype of activated myeloid dendritic cells
25 | rhIL-10: recombinant human IL-10 (protein, UniProt P22301 19-178, looked up) Interleukin-10: SPGQGTQSENSCTHFPGNLPNMLRDLRDAFSRVKTFFQMKDQLDNLLLKESLLEDFKGYLGCQALSEMIQFYLEEVMPQAENQDPDIKAHVNSLGENLKTLRLRLRRCHRFLPCENKSKAVEQVKNAFNKLQEKGIYKAMSEFDIFINYIEAYMTMKIRN | inhibited at least some of the ionophore's effects | –
26 | rhIFN-gamma: recombinant human interferon gamma (protein, UniProt P01579 24-161, looked up) Interferon gamma: QDPYVKEAENLKKYFNAGHSDVADNGTLFLGILKNWKEESDRKIMQSQIVSFYFKLFKNFKDDQSIQKSVETIKEDMNVKFFNSNKKKRDDFEKLTNYSVTDLNVQRKAIHELIQVMAELSPAAKTGKRKRSQMLFRG | enhanced CD14 downregulation and upregulation of costimulatory, MHC, and other molecule expression | HLA-DR expression ([3]; agent alone): induces HLA-DR expression
